Test results from ChEMBL document CHEMBL6092127, “Recent advancement in developing small molecular inhibitors targeting key kinase pathways against triple-negative breast cancer” (Bioorg Med Chem, 2024).

Columns and labels:
[1] = Growth inhibition of human Triple-negative breast cancer cell incubated for 24 hrs by MTT assay; type: functional
[2] = Antiproliferative activity against human EFM-192A cells assessed as reduction in cell growth measured for 24 hrs by MTT assay; type: functional, cell-based
[3] = target: Phosphatidylinositol 4,5-bisphosphate 3-kinase catalytic subunit alpha isoform (Homo sapiens, UniProt P42336); test: Inhibition of PI3Kalpha (unknown origin)
Chain of Phosphatidylinositol 4,5-bisphosphate 3-kinase catalytic subunit alpha isoform (P42336 whole entry, canonical isoform): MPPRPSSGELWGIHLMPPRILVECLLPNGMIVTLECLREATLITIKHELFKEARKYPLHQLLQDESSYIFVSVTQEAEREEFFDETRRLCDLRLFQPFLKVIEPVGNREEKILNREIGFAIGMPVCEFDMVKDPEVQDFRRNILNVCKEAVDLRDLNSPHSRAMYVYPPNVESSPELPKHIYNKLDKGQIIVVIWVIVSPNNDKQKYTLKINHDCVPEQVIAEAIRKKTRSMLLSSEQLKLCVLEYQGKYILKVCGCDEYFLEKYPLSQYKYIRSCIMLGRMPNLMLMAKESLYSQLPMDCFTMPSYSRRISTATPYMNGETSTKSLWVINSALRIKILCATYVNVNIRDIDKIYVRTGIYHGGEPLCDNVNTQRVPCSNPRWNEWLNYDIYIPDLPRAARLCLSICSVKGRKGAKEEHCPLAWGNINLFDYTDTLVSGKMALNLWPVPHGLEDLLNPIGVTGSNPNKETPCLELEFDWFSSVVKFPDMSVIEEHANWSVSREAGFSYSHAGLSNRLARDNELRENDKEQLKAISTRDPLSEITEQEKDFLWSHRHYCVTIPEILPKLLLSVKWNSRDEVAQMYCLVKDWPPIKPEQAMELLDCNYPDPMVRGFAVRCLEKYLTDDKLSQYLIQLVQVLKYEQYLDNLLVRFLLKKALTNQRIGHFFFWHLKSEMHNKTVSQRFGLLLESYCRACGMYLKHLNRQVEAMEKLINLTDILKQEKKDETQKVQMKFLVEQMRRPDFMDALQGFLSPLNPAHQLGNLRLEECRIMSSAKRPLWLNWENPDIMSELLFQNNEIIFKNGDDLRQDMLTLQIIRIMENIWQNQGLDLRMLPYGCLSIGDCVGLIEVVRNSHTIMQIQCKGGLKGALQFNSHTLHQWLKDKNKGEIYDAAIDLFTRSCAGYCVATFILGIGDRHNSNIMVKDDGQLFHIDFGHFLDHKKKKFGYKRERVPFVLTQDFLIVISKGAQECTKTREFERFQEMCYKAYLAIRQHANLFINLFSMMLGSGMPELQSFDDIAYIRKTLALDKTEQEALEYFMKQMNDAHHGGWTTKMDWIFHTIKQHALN

[4] = test system: MCF7; test: Antiproliferative activity against human MCF7 cells assessed as reduction in cell viability by MTT assay; type: functional, cell-based
[5] = test system: MDA-MB-231; test: Antiproliferative activity against human MDA-MB-231 cells assessed as reduction in cell viability by MTT assay; type: functional, cell-based
[6] = target: Serine/threonine-protein kinase mTOR (Homo sapiens, UniProt P42345); test: Inhibition of mTOR (unknown origin)

N#Cc1ccc(CN2C(=O)c3cc4ccccc4n3C[C@H]2C(=O)NCc2ccccc2)cc1
GI50 [1]: 2960 nM

COc1ccc(CCc2cc(OC)c(OC)c(OC)c2)cc1O
IC50 [2]: 78.6 nM

CS(=O)(=O)N1CCN(Cc2ccc(-c3nc(-c4ccc(NC(=O)Nc5cccnc5)cc4)nc(N4CCOCC4)n3)s2)CC1
IC50 [3]: 291 nM | IC50 [4]: 2 nM | IC50 [5]: 2 nM | IC50 [6]: 60.8 nM
